For experiment [1], the system named is IT-tg and IT-wt mice. Nature of the experiment: Morphine withdrawal symptom (jumping) induced by naloxone. The following applies: naloxone 1 mg/kg 1 hr after morphine 50 mg/kg.
Experiment [2] concerns IT-tg and IT-wt mice. Nature of the experiment: Conditioned place aversion (CPA) test, naloxone-precipitated morphine withdrawal. The conditions noted are these: naloxone 1 mg/kg after morphine 50 mg/kg.
The test system of a further experiment is IT-tg mice. Nature of the experiment: Cocaine CPP test in IT-tg mice with ACh receptor agonist pretreatment. The following applies: methyl atropine 2 mg/kg pretreatment, pilocarpine 100 mg/kg 20 min before cocaine 5 mg/kg, 3 days, P<0.01 vs saline, FIG. 6. It counts as in vivo.
Experiment [3] concerns IT-tg and IT-wt mice. Nature of the experiment: CPP test of sensitivity to addictive drugs in IT-tg and IT-wt mice.
For experiment [4], the system named is wild-type mice. In words: Cocaine-induced hyperlocomotion on day 6 after establishment of cocaine dependence, wild-type mice. It counts as in vivo. The following applies: cocaine 10 mg/kg i.p. daily 5 days, day 6 pretreatment 1 mg/kg 10 min before cocaine, FIG. 5c, P<0.001, P<0.01. The procedure: Wild-type mice (9-13 weeks) received intraperitoneal injection of cocaine (10 mg/kg) once a day for 5 days. […] On day 6, the mice were pretreated with saline, donepezil (1 mg/kg) or galanthamine (1 mg/kg) 10 min before intraperitoneal injection of cocaine (10 mg/kg), and the cocaine-induced locomotor activity was measured for 10 min (n=5-12 for each group).

In experiment [5] the test system is wild-type mice. Nature of the experiment: Morphine conditioned place preference (CPP) test in wild-type mice. The following applies: donepezil hydrochloride 1 or 3 mg/kg i.p. (both doses) 20 min before morphine 5 mg/kg, 3-day conditioning, P<0.01, FIG. 4a.
For experiment [6], the system named is wild-type mice. In words: Cocaine CPP test in wild-type mice. The following applies: donepezil hydrochloride 1 or 3 mg/kg i.p. (both doses) 20 min before drug, cocaine 10 mg/kg daily, 3 days, P<0.01, FIG. 5a.
For the next experiment, the system named is IT-wt and IT-tg mice. In words: Cocaine-induced hyperlocomotion on day 6 in IT-wt and IT-tg mice. It counts as in vivo. The following applies: cocaine 10 mg/kg daily 5 days, day 6 donepezil 1 mg/kg 10 min before cocaine. The procedure:
Cholinergic cell-eliminated (IT-tg) mice wherein ACh-expressing cells (cholinergic cells) in the NAc were ablated were prepared and used in the experiment for examining the effects of reduction of ACh level in the NAc on sensitivity to an addictive drug (a drug dependence-producing drug). Selective ablation of cholinergic cells in the NAc was conducted through immunotoxin-mediated cell targeting (IMCT) techniques using transgenic mice and anti-Tac(Fv)-PE38 as the immunotoxin (Kobayashi et al., Proc. Natl Acad. Sci. USA 92, 1132-1136 (1995); Watanabe et al., Cell 95, 17-27 (1998)). Anti-Tac (Fv)-PE38 is a recombinant fusion protein composed of a variable region of a monoclonal antibody against human interleukin 2 receptor α subunit (hIL-2Rα) and Pseudomonas exotoxin, and can be purified from E. coli BL21 as described by Chaudhary et al. (Nature 339, 394-397 (1989)). Anti-Tac(Fv)-PE38 is an immunotoxin that can specifically recognize cells expressing hIL-2Rα and inhibits their protein synthesis, thereby eliminating the cells expressing hIL-2Rα. […]
The present investigation was conducted to examine whether ACh derived from the NAc cholinergic cells is responsible for cocaine-induced hyperlocomotion. […] Their cocaine-induced locomotion was then measured for 10 min (n=7-11 for each group). […]

The subject of experiment [7] is wild-type mice. Nature of the experiment: Development of cocaine-induced locomotor sensitization in wild-type mice. The following applies: donepezil 1 mg/kg 10 min before daily cocaine 10 mg/kg i.p., 10 min measurement, ANOVA P<0.001, FIG. 5b.
Experiment [8] concerns wild-type mice. In words: Relapse of cocaine-induced hyperlocomotion after drug deprivation, wild-type mice. The class given is in vivo. The following applies: cocaine 10 mg/kg 6 days, withheld days 7-11, day 12 donepezil 1 mg/kg 10 min before cocaine, P<0.001 vs saline, FIG. 5e. The procedure: Drug-induced sensitization caused by continuous daily cocaine administration persists for a long term even after a prolonged period of abstinence from the drug. This is taken seriously as a mechanism of relapse, whereby a drug dependent individual resumes taking a drug after a long-term interruption. The effects of donepezil in blocking relapse of cocaine dependence were examined as follows: Wild-type mice (9-13 weeks) received intraperitoneal injection of cocaine (10 mg/kg) once a day for 6 days and cocaine dependence was established in mice. For 5 days, from day 7 to day 11, mice were withheld from cocaine and were kept in their home cage. On day 12, the mice were pretreated with saline or donepezil (1 mg/kg) 10 min before intraperitoneal injection with cocaine (10 mg/kg). The locomotor activity was then measured for 10 min (n=6 for each group).

The subject of experiment [9] is IT-tg and IT-wt mice. In words: Morphine CPP test in cholinergic cell-eliminated (IT-tg) and IT-wt mice with donepezil pretreatment. The following applies: donepezil hydrochloride 1 mg/kg i.p. 20 min before morphine 5 mg/kg, 3-day conditioning. It counts as in vivo.
Protocol: Cholinergic cell-eliminated (IT-tg) mice wherein ACh-expressing cells (cholinergic cells) in the NAc were ablated were prepared and used in the experiment for examining the effects of reduction of ACh level in the NAc on sensitivity to an addictive drug (a drug dependence-producing drug). Selective ablation of cholinergic cells in the NAc was conducted through immunotoxin-mediated cell targeting (IMCT) techniques using transgenic mice and anti-Tac(Fv)-PE38 as the immunotoxin (Kobayashi et al., Proc. Natl Acad. Sci. USA 92, 1132-1136 (1995); Watanabe et al., Cell 95, 17-27 (1998)). […] Anti-Tac(Fv)-PE38 is an immunotoxin that can specifically recognize cells expressing hIL-2Rα and inhibits their protein synthesis, thereby eliminating the cells expressing hIL-2Rα. The present inventors have developed a method for selectively ablating cholinergic cells in the NAc; the method comprising administering anti-Tac(Fv)-PE38 locally to a transgenic mouse whose NAc specifically expressed hIL-2Rα in cholinergic cells. […] Both wild-type and transgenic mice were C57B6/J strain. […] The above-mentioned IT-treated transgenic mouse was used as cholinergic cell-eliminated mouse (IT-tg) in the Experiments and Examples hereinafter described.

We go through five compounds from patent publication US20060058336A1, “Pharmaceutical composition for treatment of drug dependence” (priority 2003, published 2006).

`C=CCN1CC[C@]23c4c5ccc(O)c4O[C@H]2C(=O)CC[C@@]3(O)[C@H]1C5` [naloxone]: the “jumping (physical morphine withdrawal symptom)” value in the experiment with IT-tg and IT-wt mice [1] (IT-tg and IT-wt morphine-dependent mice, counted over 20 min) is “observed in both”. Besides, the “number of jumps, IT-tg vs IT-wt mice” value with IT-tg and IT-wt mice [1] (morphine-dependent mice, 20 min, P<0.05, FIG. 3) is given as “significantly more number of jumps”. Moreover, the “place aversion to naloxone-paired chamber” value with IT-tg and IT-wt mice [2] (both IT-tg and IT-wt morphine-dependent mice, FIG. 2b) is reported as “exhibited place aversion”. For the same compound, the “place aversion to naloxone-paired chamber, IT-tg vs IT-wt mice” value with IT-tg and IT-wt mice [2] (morphine-dependent mice, P<0.05, FIG. 2b) is listed as “stronger place aversion”.

Turning to `CC[C@@H]1C(=O)OC[C@@H]1Cc1cncn1C` [pilocarpine], the “development of cocaine-induced CPP in IT-tg mice” value in the experiment with IT-tg mice is recorded as “significantly reduced”.

As for `CN1CC[C@]23c4c5ccc(O)c4O[C@H]2[C@@H](O)C=C[C@H]3[C@H]1C5` [morphine], in the experiment with IT-tg and IT-wt mice [3] (IT-tg mice, 3-day conditioning with 1 mg/kg morphine i.p., P<0.05, FIG. 2a), the “place preference for morphine-paired chamber, IT-tg mice, 1 mg/kg” value is “significant preference”. In the experiment with IT-tg and IT-wt mice [3] (IT-wt mice, 3-day conditioning with 1 mg/kg morphine i.p., FIG. 2a), the “place preference for morphine-paired chamber, IT-wt mice, 1 mg/kg” value is on record as “no such preference was observed”. Also, the “place preference for morphine-paired chamber, 5 mg/kg” value in the experiment with IT-tg and IT-wt mice [3] (both IT-tg and IT-wt mice, conditioning with 5 mg/kg morphine) is reported as “exhibited place preference”.

With `COc1cc2c(cc1OC)C(=O)C(CC1CCN(Cc3ccccc3)CC1)C2` (stereo not drawn) [donepezil], the “cocaine-induced hyperlocomotion on day 6” value with wild-type mice [4] is recorded as “significantly effective in inhibiting”. Further, the “development of morphine-induced CPP” value in the experiment with wild-type mice [5] is reported as “significantly reduced”. In addition, the “degree of cocaine-induced CPP” value with wild-type mice [6] is on record as “significantly reduced”. For the same compound, in the experiment with IT-wt and IT-tg mice (IT-tg mice, FIG. 5d), the “effects on cocaine-induced locomotion in IT-tg group” value is “not observed”. Further, in the experiment with IT-wt and IT-tg mice (IT-wt mice, P<0.05, FIG. 5d), the “cocaine-induced abnormal behaviors (locomotor sensitization) in IT-wt group” value is recorded as “significantly decreased”. In addition, the “increase in locomotor activity by repeated cocaine administration (locomotor sensitization)” value in the experiment with wild-type mice [7] was “no such increase was observed”. The “abnormal hyperlocomotion after cocaine re-administration on day 12 (relapse)” value in the experiment with wild-type mice [8] is recorded as “no abnormal hyperlocomotion was observed”. For the same compound, the “morphine-induced CPP in IT-tg mice” value in the experiment with IT-tg and IT-wt mice [9] (IT-tg mice, FIG. 4b) was “failed to suppress”. Moreover, the “morphine-induced CPP in IT-wt mice” value with IT-tg and IT-wt mice [9] (IT-wt mice, P<0.01, FIG. 4b) was “significantly reduced”.

Consider `COc1ccc2c3c1O[C@H]1C[C@@H](O)C=C[C@@]31CCN(C)C2` [galanthamine], for which the “cocaine-induced hyperlocomotion on day 6” value in the experiment with wild-type mice [4] was “significantly effective in inhibiting”.
